Experimental data taken from patent publication US9339486B2, “Heterocyclic modulators of cannabinoid receptors” (THE CLEVELAND CLINIC FOUNDATION, priority 2008, dated 2016).

How the values were obtained:
[1] = system: spinal nerve ligation neuropathic pain model; assay: Tactile allodynia in SNL neuropathic pain model (von Frey); format: in vivo, rat; settings: for effect of antagonist alone on paw withdrawal threshold: 5 mg/kg i.p. alone
Method: Adult, male Sprague Dawley (Harlan Sprague Dawley, Indianapolis, Ind.) rats weighing 120-150 gm were used in experimental procedures approved by the Animal Care and Use Committee of the M. D. Anderson Cancer Center, University of Texas. Animals were housed three per cage on a 12/12 hr light/dark cycle with water and food pellets available ad libitum.
All surgical procedures were performed under deep isoflurane anesthesia in 100% 02. The spinal nerve ligation (SNL) was performed as described previously. Kim, S. H., et al., An Experimental Model for Peripheral Neuropathy Produced by Segmental Spinal Nerve Ligation in the Rat, Pain, 1992, 50:355-63. Briefly, a midline incision above the lumbar spine exposed the left L6 transverse process. The process was then removed, the left L5 and L6 spinal nerves were isolated, and both nerves were tightly ligated with 6-0 silk. Prophylactic antibiotic (norfloxacin 5 mg/kg subcutaneously) and analgesic (buprenorphine, 0.2-0.5 mg/kg, or morphine, 2.5 mg/kg, given subcutaneously) were administered once daily for 3 days. All the experiments were conducted 10-14 days after spinal nerve ligation.
(§1) Rats were placed in a compartment with a wire mesh bottom and allowed to acclimate for a minimum of 30 min before testing. Mechanical sensitivity was assessed using a series of Von Frey filaments with logarithmic incremental stiffness (0.41, 0.70, 1.20, 2.00, 3.63, 5.50, 8.50, and 15.1 g) (Stoelting, Wood Dale, Ill.) as previously described, and 50% probability withdrawal thresholds were calculated with the up-down method. Chaplan, S. R., et al., Quantitative Assessment of Tactile Allodynia in the Rat Paw, J. Neurosci. Methods, 1994, 53:55-63; Dixon, W., The Up-and-Down Method for Small Samples, J. Am. Stat. Assoc., 1965, 60:967-78. In brief, beginning with the 2.0-g probe, filaments were applied to the plantar surface of a hind paw for 6-8 s, in an ascending or descending order after a negative or positive withdrawal response, respectively. Six consecutive responses from the first change in the response were used to calculate the withdrawal threshold (in grams). In cases where response thresholds fell outside the range of detection, 15.00 and 0.25 g were, respectively, assigned for continuous negative or positive responses to the limit of stimuli. The percent maximal possible effect (% MPE) was calculated as ([postdrug threshold−baseline threshold]/[cutoff threshold (15 g)−baseline threshold])×100.
(§2) Statistical analyses were carried out using BMDP 2007 (Statistical Solutions, Saugus, Mass., USA) and Graph Pad Prism (version 4.03; Graph Pad Software Inc., San Diego, Calif., USA). Data were analyzed using one-way ANOVA, repeated measures ANOVA, or t-test where appropriate. If ANOVA was significant, Tukey-Kramer post hoc analysis was used for multiple group comparison. Area under the curve (AUC) was calculated using the trapezoidal rule. The results are presented as mean±s.e. mean and were considered significant at P<0.05. Analyses of the dose-response curves and statistics were obtained using the pharmacologic software programs of Tallarida and Murray and included calculation of the ED50 values and their 95% confidence intervals (CI). Tallarida, R. J., et al., Manual of Pharmacologic Calculations With Computer Programs, Second ed. New York: Springer-Verlag, 1987.

[2] = system: paclitaxel-induced neuropathic pain model; assay: animal or person; format: in vivo, rat
Method: Groups of rats received daily i.p. injections of either vehicle or 1.0 mg/kg paclitaxel daily for four consecutive days for a final cumulative dose of 4 mg/kg; using an injection volume of 1 ml/kg. Polomano, R. C., et al., A Painful Peripheral Neuropathy in the Rat Produced by the Chemotherapeutic Drug, Paclitaxel, Pain, 2001, 94:293-304. The vehicle used in our experiments was the same vehicle used clinically for paclitaxel injections and is composed of a mixture of 10% saline and Cremophor EL® and […]. Baseline responses to mechanical stimulation of the hindpaw (see below) were established on day zero and continued daily until the development of neuropathy was confirmed.
as §1
To determine sensitivity to noxious heat, rats were placed in plexiglass enclosures on a transparent glass surface maintained at 30° C. and allowed to acclimate for 30 min. A thermal testing apparatus, consisting of a heat-emitting projector lamp and an electronic timer, was used. The device was activated after the lamp is placed directly beneath the planter surface of the hindpaw. The paw withdrawal latency in response to the radiant heat was recorded by a digital timer. A cutoff of 30 s was used to prevent potential tissue damage. After the baseline was measured, three groups of naïve rats (n=10) received 1.0, 3.0, or 10 mg/kg of the compound of Example 3 i.p. Response latencies were determined twice for each rat before drug injection and at 5, 10, 15, 30, 45, 60, 90 and 120 min after IP injection. The percent maximal possible effect (% MPE) was calculated as ([postdrug latency−baseline latency]/[cutoff time (30 s)−baseline latency])×100.
as §2

CB1 [3] = target: T1, CB1 (Homo sapiens (Human), UniProt P21554); assay: CB1 Binding Assay ([3H]CP 55940, cell membrane homogenates); settings: for % Inhibition of Control Specific Binding / % of Control Specific Binding Mean / % of Control Specific Binding 1st / % of Control Specific Binding 2nd: CB1, test concentration 1.0E−05 (MD); for % of Control Specific Binding 1st: first replicate; for % of Control Specific Binding 2nd: second replicate; for % Inhibition of Control Specific Binding CB1: as repeated in Table 3
T1 sequence (P21554 whole entry): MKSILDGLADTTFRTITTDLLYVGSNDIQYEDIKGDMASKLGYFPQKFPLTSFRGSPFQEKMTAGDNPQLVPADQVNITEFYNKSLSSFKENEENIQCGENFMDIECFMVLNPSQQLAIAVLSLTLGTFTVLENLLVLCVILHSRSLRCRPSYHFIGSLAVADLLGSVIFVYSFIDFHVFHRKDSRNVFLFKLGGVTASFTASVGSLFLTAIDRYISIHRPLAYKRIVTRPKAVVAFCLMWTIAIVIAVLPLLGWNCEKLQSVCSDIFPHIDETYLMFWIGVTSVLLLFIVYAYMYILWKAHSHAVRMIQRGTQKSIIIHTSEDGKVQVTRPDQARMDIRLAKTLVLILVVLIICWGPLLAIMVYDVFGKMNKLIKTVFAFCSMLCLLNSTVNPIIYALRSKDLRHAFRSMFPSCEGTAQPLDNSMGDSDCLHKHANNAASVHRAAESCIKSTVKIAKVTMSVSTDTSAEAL
Method: (§3) After being incubated, the samples were filtered rapidly under vacuum through glass fiber filters (GF/B; Packard) presoaked with 0.3% PEI and rinsed several times with ice-cold buffer containing 50 mM Tris HCl (pH 7.4) and 0.5% BSA using a 96-sample cell harvester (Unifilter; Packard). The filters were dried then counted for radioactivity in a scintillation counter (Topcount; Packard) using a scintillation cocktail (Microscint 0; Packard). The results were expressed as a percentage of the inhibition of the control radioligand-specific binding. The reference standard compounds were tested in each experiment at several concentrations to obtain a competition curve from which its IC50 was calculated.

CB2 [4] = target: T2, CB2 (Homo sapiens (Human), UniProt P34972); assay: CB2 Binding Assay ([3H]WIN 55212-2, cell membrane homogenates); settings: for % Inhibition of Control Specific Binding / % of Control Specific Binding Mean / % of Control Specific Binding 1st / % of Control Specific Binding 2nd: CB2, test concentration 1.0E−05 (MD); for % of Control Specific Binding 1st: first replicate; for % of Control Specific Binding 2nd: second replicate; for % Inhibition of Control Specific Binding CB2: as repeated in Table 4
T2 sequence (P34972 whole entry): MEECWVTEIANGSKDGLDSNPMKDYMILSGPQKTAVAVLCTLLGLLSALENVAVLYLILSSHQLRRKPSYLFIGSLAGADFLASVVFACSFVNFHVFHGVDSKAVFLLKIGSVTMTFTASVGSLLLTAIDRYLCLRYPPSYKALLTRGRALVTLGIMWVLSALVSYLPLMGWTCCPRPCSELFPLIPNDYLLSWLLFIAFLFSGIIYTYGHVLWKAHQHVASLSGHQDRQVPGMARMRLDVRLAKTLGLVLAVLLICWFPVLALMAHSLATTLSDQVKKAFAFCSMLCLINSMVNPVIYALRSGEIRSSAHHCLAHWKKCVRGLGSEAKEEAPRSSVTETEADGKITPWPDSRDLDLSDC
Method: as §3, with “Cell membrane homogenates (15 μg protein) were incubated for 120 min at 37° C. with 0.8 nM [3H]WIN 55212-2 (the reference standard [Munro, 1993 #1321]) in the absence or presence of the test compound in a buffer containing 50 mM HEPES/Tris HCL (pH 7.4), 5 mM MgCl2, 2.5 mM EGTA, and 0.1% BSA. Nonspecific binding was determined in the presence of 10 μM WIN 55212-2. After” for “After”

CB1 [5] = target: T1, CB1; assay: CB1/CB2 Functional Assay (GTPγ[35S]), CB1 membranes; format: biochemical; settings: for % Activation Average: reference agonist CP55,940
Method: (§4) A dose response curve was generated at eight concentrations in duplicate on CB1 and CB2 in light of reference agonists. The reference agonists for cannabinoid receptors was CP55,940. See FIGS. 1A, 1B, 2A, 2B, 3A and 3B.
(§5) Membranes (CB1, ES-110-MG or CB2, ES-111-MG) were mixed with GDP (volume:volume) and incubated for at least 15 min on ice. In parallel, GTPγ[^35S] were mixed with the beads (volume:volume) just before starting the reaction. The following reagents were successively added in the wells of an Optiplate: 50 μl of ligand, 20 μl of the membranes:GDP mix, 10 μl of assay buffer for agonist testing and 20 μl of the GTPγ[^35S]: beads mix. The plates were covered with a topseal, shaken on an orbital shaker for 2 min, and then incubated between 30 to 60 min. at room temperature. Then the plates were centrifuged for 10 min at 2000 rpm, incubated at room temperature between 1 to 4 hours and counted for 1 min with a PerkinElmer TopCount reader.

CB2 [6] = target: T2, CB2; assay: CB1/CB2 Functional Assay (GTPγ[35S]), CB2 membranes; format: biochemical; settings: for EC50: read-out: EC50 (nM) for GTP Binding; for % Activation Average: reference agonist CP55,940
Method: as §4, §5

| SMILES | % Inhibition of Control Specific Binding (CB1 [3]) [%] | % of Control Specific Binding Mean (CB1 [3]) [%] | % of Control Specific Binding 1st (CB1 [3]) [%] | % of Control Specific Binding 2nd (CB1 [3]) [%] | % Inhibition of Control Specific Binding (CB2 [4]) [%] | % of Control Specific Binding Mean (CB2 [4]) [%] | % of Control Specific Binding 1st (CB2 [4]) [%] | % of Control Specific Binding 2nd (CB2 [4]) [%] | other results |
| --- | --- | --- | --- | --- | --- | --- | --- | --- | --- |
| Cc1c(C(=O)NN2CCCCC2)nn(-c2ccc(Cl)cc2Cl)c1-c1ccc(I)cc1 [AM251, reference compound] |  |  |  |  |  |  |  |  | effect of antagonist alone on paw withdrawal threshold [1]: had no effect |
| COc1ccc(C(=O)c2c(C)n(CCN3CCOCC3)c3cc(I)ccc23)cc1 [AM630, reference compound] |  |  |  |  |  |  |  |  | effect of antagonist alone on paw withdrawal threshold [1]: had no effect |
| CN1CCCCC1Cn1cc(C(=O)c2cc([N+](=O)[O-])ccc2I)c2ccccc21 (stereo not shown) [AM1241, reference compound] |  |  |  |  |  |  |  |  | antiallodynic effect versus vehicle ([1]; 15 mg/kg i.p.): produced antiallodynic effects; effect of naloxone pretreatment on analgesic effects ([1]; AM1241 15 mg/kg i.p.): significantly reversed; effect on reversing thermal hyperalgesia compared with 15 mg/kg compound of Example 3 i.p. ([2]; 5 mg/kg i.p.): significantly less than |
| CC1(Cc2ccccc2)COc2cc(C(=O)Nc3ccccc3I)ccc21 (stereo not shown) [Example 1, 3-Benzyl-3-methyl-2,3-dihydro-benzofuran-6-carboxylic acid (2-iodo-phenyl)-amide] | 14 | 85.5 | 85.7 | 85.3 | 23 | 76.6 | 78.3 | 74.8 |  |
| CC1(Cc2ccccc2)COc2cc(C(=O)NC3CCCCC3)ccc21 (stereo not shown) [Example 2, 3-Benzyl-3-methyl-2,3-dihydro-benzofuran-6-carboxylic acid cyclohexylamide] | 68 | 31.8 | 29.9 | 33.8 | 85 | 14.9 | 21.3 | 8.6 | % Inhibition of Control Specific Binding CB1 (CB1 [3]): 68%; Compound Function (CB1 [5]): Inverse; % Activation Average (CB1 [5]): −35.79%; % Inhibition of Control Specific Binding CB2 (CB2 [4]): 85%; Compound Function (CB2 [6]): Agonist; EC50 (CB2 [6]): 479 nM; % Activation Average (CB2 [6]): 52.94% |
| CC1(Cc2ccccc2)COc2ccc(C(=O)Nc3ccccc3I)cc21 (stereo not shown) [Example 4, 3-Benzyl-3-methyl-2,3-dihydro-benzofuran-5-carboxylic acid-o-iodoanilide] | 9 | 90.5 | 85.9 | 95.1 | 15 | 84.7 | 83.9 | 85.5 |  |
| CC1(Cc2ccccc2)COc2ccc(C(=O)NC3CCCCC3)cc21 (stereo not shown) [Example 5, 3-benzyl-3-methyl-2,3-dihydrobenzofuran-5-carboxylic acid-cyclohexylamide] | 43 | 57.2 | 53.5 | 60.8 | 72 | 27.5 | 29.9 | 25.1 | % Inhibition of Control Specific Binding CB1 (CB1 [3]): 43%; Compound Function (CB1 [5]): Inverse; % Activation Average (CB1 [5]): −36.02%; % Inhibition of Control Specific Binding CB2 (CB2 [4]): 72%; Compound Function (CB2 [6]): Agonist; EC50 (CB2 [6]): 409 nM; % Activation Average (CB2 [6]): 55.71% |
| CC1(Cc2ccccc2)COc2ccc(C(=O)N3CCCCC3)cc21 (stereo not shown) [Example 6, 3-benzyl-3-methyl-2,3-dihydrobenzofuran-5-carboxylic acid-piperidine amide] |  |  |  |  | 31 | 69.4 | 71.6 | 67.3 |  |
| C=CCN1CC[C@]23c4c5ccc(O)c4O[C@H]2C(=O)CC[C@@]3(O)[C@H]1C5 [naloxone, reference compound] |  |  |  |  |  |  |  |  | effect per se on paw withdrawal threshold ([1]; 10 mg/kg i.p.): did not affect paw withdrawal threshold |
| CC(=O)O[C@H]1C(=O)[C@@]2(C)[C@H]([C@H](OC(=O)c3ccccc3)[C@]3(O)C[C@H](OC(=O)[C@H](O)[C@@H](NC(=O)c4ccccc4)c4ccccc4)C(C)=C1C3(C)C)[C@]1(OC(C)=O)CO[C@@H]1C[C@@H]2O [paclitaxel, reference compound] |  |  |  |  |  |  |  |  | paw withdrawal threshold to mechanical stimulation, left paw ([2]; rat, in vivo): 2.8 ± 0.15 g; paw withdrawal threshold to mechanical stimulation, right paw ([2]; rat, in vivo): 2.9 ± 0.19 g |
